Assays:
[1] = biological target: RAC-beta serine/threonine-protein kinase (Homo sapiens) (UniProt P31751); assay: Inhibition of human AKT2 at 500 nM by HotSpot assay relative to control
[2] = biological target: T1, TGF-beta receptor type-1 (Homo sapiens) (UniProt P36897); assay: Inhibition of human ALK5 at 500 nM by HotSpot assay relative to control
T1 sequence (whole entry): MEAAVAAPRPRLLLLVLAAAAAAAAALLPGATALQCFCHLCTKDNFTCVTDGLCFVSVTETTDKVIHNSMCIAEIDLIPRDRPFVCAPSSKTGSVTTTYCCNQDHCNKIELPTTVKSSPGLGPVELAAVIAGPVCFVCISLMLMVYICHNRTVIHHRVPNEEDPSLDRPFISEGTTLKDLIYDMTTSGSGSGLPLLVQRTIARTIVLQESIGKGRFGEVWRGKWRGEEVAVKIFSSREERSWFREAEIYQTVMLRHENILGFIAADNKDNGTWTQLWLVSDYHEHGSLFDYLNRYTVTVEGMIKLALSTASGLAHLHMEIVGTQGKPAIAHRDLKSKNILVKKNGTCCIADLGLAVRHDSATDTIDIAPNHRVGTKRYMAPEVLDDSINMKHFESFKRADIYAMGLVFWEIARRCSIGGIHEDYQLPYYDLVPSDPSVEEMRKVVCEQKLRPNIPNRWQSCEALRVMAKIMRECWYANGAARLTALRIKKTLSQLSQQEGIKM

[3] = biological target: Calcium/calmodulin-dependent protein kinase type 1D (Homo sapiens) (UniProt Q8IU85); assay: Inhibition of human CAMK1d at 500 nM by HotSpot assay relative to control
Chain of Calcium/calmodulin-dependent protein kinase type 1D (Homo sapiens) (Q8IU85 whole entry, looked up): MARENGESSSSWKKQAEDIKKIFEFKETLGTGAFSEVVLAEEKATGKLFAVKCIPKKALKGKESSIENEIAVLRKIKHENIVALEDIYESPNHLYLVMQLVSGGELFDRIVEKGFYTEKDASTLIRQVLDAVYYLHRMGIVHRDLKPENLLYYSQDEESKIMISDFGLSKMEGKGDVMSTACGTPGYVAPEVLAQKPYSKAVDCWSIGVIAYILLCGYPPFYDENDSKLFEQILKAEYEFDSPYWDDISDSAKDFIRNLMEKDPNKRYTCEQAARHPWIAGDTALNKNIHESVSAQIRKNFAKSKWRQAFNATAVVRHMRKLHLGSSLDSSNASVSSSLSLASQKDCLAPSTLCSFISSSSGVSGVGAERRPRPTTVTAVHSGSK

[4] = biological target: Dual specificity protein kinase CLK4 (Homo sapiens) (UniProt Q9HAZ1); assay: Inhibition of human CLK4 at 500 nM by HotSpot assay relative to control
Chain of Dual specificity protein kinase CLK4 (Homo sapiens) (Q9HAZ1 whole entry, looked up): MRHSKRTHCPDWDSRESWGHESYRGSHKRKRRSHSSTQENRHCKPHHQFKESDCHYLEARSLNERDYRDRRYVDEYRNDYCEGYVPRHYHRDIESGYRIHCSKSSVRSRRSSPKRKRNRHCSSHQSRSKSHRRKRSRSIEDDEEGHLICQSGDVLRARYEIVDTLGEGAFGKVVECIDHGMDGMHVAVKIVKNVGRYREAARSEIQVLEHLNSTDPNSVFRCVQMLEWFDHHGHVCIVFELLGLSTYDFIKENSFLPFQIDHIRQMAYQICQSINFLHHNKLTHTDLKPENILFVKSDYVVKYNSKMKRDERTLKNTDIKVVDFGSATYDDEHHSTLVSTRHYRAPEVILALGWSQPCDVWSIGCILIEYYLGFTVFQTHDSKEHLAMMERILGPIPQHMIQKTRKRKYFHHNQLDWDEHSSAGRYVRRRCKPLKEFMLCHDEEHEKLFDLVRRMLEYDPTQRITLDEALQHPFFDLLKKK

[5] = biological target: Receptor tyrosine-protein kinase erbB-4 (Homo sapiens) (UniProt Q15303); assay: Inhibition of human ERBB4 at 500 nM by HotSpot assay relative to control
Chain of Receptor tyrosine-protein kinase erbB-4 (Homo sapiens) (Q15303 whole entry): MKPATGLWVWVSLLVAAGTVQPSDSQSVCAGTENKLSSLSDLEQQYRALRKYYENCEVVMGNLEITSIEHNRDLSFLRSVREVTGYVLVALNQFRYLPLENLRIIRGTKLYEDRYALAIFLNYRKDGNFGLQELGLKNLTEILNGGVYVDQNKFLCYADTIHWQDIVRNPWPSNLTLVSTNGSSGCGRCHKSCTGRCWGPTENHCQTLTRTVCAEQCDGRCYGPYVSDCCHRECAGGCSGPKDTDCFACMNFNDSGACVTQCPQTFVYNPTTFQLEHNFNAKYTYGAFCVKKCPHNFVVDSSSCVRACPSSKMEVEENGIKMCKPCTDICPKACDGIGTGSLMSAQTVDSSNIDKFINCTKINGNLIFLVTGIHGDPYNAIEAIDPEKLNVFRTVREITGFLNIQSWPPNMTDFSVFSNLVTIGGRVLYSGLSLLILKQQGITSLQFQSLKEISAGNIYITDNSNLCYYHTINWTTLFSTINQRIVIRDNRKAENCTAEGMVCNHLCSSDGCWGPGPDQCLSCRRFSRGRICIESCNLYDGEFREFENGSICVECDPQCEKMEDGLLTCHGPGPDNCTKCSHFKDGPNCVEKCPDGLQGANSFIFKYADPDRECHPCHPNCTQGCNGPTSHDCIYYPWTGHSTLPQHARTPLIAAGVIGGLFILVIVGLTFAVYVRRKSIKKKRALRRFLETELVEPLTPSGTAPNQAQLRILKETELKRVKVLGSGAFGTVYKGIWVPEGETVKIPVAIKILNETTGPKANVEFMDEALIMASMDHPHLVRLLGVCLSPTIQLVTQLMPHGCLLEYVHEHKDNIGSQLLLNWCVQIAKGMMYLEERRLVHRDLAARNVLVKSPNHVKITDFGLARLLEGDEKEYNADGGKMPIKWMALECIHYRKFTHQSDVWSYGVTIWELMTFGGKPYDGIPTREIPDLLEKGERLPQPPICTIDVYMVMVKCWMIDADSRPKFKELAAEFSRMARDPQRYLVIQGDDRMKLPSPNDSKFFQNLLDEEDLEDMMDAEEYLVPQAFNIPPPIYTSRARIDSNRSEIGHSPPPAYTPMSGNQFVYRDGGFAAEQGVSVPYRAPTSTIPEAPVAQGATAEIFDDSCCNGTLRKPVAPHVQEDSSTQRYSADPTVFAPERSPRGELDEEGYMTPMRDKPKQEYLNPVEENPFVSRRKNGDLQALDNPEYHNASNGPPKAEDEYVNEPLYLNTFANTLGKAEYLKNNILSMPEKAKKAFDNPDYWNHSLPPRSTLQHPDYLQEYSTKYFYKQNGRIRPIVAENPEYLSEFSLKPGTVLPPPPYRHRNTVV

[6] = biological target: G protein-coupled receptor kinase 6 (Homo sapiens) (UniProt P43250); assay: Inhibition of human GRK6 at 500 nM by HotSpot assay relative to control
Chain of G protein-coupled receptor kinase 6 (Homo sapiens) (P43250 whole entry, looked up): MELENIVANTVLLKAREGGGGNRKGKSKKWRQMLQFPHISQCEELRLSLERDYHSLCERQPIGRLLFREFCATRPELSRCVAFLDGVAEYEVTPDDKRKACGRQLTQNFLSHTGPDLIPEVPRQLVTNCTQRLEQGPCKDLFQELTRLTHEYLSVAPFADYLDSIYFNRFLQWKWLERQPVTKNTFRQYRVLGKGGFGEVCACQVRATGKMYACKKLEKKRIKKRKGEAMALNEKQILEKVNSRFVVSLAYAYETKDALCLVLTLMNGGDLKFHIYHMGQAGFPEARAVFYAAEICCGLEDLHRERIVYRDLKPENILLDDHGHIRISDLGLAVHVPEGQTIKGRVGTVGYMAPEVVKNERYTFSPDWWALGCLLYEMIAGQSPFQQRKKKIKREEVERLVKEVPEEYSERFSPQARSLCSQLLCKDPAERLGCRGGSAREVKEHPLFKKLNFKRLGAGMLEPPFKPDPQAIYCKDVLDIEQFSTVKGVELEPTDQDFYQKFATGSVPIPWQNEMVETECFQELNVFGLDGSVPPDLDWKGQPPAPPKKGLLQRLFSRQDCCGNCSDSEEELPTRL

[7] = biological target: Mitogen-activated protein kinase 8 (Homo sapiens) (UniProt P45983); assay: Inhibition of human JNK1 at 500 nM by HotSpot assay relative to control
Chain of Mitogen-activated protein kinase 8 (Homo sapiens) (P45983 whole entry): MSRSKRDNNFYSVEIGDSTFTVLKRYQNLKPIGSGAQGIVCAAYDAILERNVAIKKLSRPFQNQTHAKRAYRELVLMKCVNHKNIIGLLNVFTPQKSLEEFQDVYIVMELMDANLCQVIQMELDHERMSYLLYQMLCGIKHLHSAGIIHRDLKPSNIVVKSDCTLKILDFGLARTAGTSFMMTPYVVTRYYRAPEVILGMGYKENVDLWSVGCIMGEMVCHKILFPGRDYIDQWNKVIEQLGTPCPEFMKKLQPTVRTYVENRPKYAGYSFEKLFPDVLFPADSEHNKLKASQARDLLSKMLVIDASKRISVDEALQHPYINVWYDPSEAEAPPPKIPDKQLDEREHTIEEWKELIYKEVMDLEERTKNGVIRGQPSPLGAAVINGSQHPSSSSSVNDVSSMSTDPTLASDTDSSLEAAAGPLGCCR

[8] = biological target: Tyrosine-protein kinase Lyn (Homo sapiens) (UniProt P07948); assay: Inhibition of human LYN B at 500 nM by HotSpot assay relative to control
[9] = biological target: T2, 3-phosphoinositide-dependent protein kinase 1 (Homo sapiens) (UniProt O15530); assay: Inhibition of human PDPK1 at 500 nM by HotSpot assay relative to control
T2 sequence (whole entry): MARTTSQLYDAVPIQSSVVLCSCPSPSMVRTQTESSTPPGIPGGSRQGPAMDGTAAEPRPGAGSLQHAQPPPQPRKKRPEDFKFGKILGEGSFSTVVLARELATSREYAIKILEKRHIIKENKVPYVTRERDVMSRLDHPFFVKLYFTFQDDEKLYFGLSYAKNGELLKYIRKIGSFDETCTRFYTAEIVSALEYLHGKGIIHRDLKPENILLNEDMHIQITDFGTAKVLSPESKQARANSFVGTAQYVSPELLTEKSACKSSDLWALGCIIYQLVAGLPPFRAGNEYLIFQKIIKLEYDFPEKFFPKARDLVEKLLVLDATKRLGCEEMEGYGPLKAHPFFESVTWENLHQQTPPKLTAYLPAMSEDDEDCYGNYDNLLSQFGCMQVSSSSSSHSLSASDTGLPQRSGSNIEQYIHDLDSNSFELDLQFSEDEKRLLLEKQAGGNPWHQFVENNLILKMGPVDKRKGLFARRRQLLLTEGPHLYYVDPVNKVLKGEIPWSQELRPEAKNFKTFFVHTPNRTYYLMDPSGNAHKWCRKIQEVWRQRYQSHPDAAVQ

[10] = biological target: High affinity nerve growth factor receptor (Homo sapiens) (UniProt P04629); assay: Inhibition of human TRKA at 500 nM by HotSpot assay relative to control
Chain of High affinity nerve growth factor receptor (Homo sapiens) (P04629 33-796 limits assumed): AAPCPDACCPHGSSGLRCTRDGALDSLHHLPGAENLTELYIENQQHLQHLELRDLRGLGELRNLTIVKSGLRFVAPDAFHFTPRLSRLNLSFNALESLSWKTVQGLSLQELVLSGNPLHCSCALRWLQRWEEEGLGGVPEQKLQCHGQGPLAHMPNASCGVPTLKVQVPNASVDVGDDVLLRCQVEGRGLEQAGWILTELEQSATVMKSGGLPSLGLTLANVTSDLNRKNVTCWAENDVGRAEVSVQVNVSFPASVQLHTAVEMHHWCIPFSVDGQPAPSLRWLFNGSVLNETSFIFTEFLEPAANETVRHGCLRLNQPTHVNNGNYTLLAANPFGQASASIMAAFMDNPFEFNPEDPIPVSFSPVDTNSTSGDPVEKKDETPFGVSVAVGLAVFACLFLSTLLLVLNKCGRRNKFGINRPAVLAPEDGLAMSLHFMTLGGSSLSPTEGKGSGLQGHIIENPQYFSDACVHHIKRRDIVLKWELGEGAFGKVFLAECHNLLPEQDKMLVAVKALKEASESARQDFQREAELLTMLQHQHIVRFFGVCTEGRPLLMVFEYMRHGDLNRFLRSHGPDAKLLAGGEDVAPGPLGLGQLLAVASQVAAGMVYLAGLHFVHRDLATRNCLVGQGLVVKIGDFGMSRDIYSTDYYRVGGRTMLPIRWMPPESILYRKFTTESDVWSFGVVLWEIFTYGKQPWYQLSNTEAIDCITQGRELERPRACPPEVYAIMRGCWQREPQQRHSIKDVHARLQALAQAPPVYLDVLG

[11] = biological target: T3, Tyrosine-protein kinase receptor TYRO3 (Homo sapiens) (UniProt Q06418); assay: Inhibition of human SKY at 500 nM by HotSpot assay relative to control
T3 sequence (whole entry): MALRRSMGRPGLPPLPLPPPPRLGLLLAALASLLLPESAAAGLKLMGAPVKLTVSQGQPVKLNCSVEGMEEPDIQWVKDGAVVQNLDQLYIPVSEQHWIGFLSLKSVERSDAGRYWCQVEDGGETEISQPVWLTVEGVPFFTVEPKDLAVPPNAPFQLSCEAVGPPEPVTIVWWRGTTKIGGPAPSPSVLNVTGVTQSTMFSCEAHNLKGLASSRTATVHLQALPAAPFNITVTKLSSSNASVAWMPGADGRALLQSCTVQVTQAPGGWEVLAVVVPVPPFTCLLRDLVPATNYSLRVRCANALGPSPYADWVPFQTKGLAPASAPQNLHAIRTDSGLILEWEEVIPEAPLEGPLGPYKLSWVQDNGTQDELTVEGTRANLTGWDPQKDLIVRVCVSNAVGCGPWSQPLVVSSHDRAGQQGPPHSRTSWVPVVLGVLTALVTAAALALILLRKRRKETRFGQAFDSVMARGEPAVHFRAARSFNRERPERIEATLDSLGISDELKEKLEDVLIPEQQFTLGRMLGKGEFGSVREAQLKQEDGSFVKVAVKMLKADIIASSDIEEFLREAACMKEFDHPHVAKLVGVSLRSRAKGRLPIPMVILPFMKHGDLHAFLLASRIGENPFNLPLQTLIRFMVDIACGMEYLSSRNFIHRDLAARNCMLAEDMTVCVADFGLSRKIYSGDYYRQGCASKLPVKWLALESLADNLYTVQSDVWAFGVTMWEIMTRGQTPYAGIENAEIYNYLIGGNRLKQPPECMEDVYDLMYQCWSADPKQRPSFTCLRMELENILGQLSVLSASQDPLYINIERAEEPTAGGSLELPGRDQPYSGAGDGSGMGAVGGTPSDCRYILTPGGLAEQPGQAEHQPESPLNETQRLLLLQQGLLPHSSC

[12] = biological target: Mitogen-activated protein kinase kinase kinase 7 (Homo sapiens) (UniProt O43318); assay: Inhibition of human TAK1 at 500 nM by HotSpot assay relative to control
Chain of Mitogen-activated protein kinase kinase kinase 7 (Homo sapiens) (O43318 whole entry, looked up): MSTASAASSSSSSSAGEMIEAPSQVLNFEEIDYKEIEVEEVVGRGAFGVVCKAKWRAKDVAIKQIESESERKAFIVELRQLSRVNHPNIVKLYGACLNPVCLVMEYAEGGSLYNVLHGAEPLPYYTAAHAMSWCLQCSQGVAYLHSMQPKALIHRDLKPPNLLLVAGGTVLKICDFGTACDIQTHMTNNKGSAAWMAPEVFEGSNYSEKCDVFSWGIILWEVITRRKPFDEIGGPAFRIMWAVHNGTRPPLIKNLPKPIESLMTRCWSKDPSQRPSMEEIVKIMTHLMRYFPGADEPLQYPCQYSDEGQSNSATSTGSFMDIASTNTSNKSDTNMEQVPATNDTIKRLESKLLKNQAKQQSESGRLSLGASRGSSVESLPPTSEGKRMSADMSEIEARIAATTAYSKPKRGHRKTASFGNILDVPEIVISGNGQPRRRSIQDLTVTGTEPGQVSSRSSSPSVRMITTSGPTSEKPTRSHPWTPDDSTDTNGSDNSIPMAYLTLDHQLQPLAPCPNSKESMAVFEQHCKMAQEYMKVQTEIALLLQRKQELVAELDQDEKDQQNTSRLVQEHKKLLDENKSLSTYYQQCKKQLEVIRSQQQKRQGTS

Chain of RAC-beta serine/threonine-protein kinase (Homo sapiens) (P31751 whole entry): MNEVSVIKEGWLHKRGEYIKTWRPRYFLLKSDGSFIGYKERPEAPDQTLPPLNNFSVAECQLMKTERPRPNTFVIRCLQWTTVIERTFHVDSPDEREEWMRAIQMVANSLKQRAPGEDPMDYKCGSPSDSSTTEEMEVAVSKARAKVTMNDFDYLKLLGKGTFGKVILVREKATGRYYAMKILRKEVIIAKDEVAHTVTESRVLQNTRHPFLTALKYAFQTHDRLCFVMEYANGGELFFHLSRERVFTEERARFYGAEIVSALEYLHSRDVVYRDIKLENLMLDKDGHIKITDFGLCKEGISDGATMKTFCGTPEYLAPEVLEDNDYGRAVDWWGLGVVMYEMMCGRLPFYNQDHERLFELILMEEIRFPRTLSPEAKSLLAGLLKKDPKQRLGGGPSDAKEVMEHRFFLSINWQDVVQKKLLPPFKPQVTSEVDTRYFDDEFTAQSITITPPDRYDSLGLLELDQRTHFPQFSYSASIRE

Nc1n[nH]c2nnc(-c3c(-c4ccccc4)nn4ccccc34)cc12
inhibition [1]: 2.47% | inhibition [2]: 3.87% | inhibition [3]: 4.06% | inhibition [4]: 5.12% | inhibition [5]: 8.64% | inhibition [6]: 0.69% | inhibition [7]: 1.96% | inhibition [8]: 2.89% | inhibition [9]: -3.56% | inhibition [10]: -1.03% | inhibition [11]: 2.41% | inhibition [12]: -1.47%

Oc1n[nH]c2nnc(-c3c(-c4ccccc4)nn4ccccc34)cc12
inhibition [1]: -5.44% | inhibition [2]: 4.23% | inhibition [3]: -3.04% | inhibition [4]: -0.68% | inhibition [5]: -0.52% | inhibition [6]: 1.01% | inhibition [7]: 16.7% | inhibition [8]: 2.89% | inhibition [9]: 7.43% | inhibition [10]: 4.28% | inhibition [11]: 10.1% | inhibition [12]: -3.14%

From ChEMBL document CHEMBL5653615 (J Biol Chem, 2013)
